Data on eleven molecules can be found in patent publication US4482566A, “Substituted aminoalkylbenzene type lower acylamides” (Teikoku Hormone Mfg. Co., Ltd., priority 1979, dated 1984).

One data set can be described thus: Acute toxicity. The settings on record: mouse, in vivo, po, SLC-ddY male mice of aging 4 weeks. Here is the method:
To test the acute toxicity of each compound (A), (B) and (C), LD50 was determined using SLC-ddY male mice of aging 4 weeks.

The subject of data set [1] is gastric acid secretion induced by histamine. Nature of the data set: Inhibitory action against the gastric acid secretion induced by histamine (perfused stomach, anesthetized rats). The class given is in vivo. The settings on record: Rattus norvegicus, 1 h; male Donryu rats, urethane anesthesia; compound injected before histamine dihydrochloride 5 mg/kg i.v.; acid output during 60 min; read-out: ED50, dose to inhibit 50% of acid output of the control. The procedure: Inhibitory action of a test compound against the gastric acid secretion induced by histamine was determined according to the method of Ghosh and Schild (M. N. Ghosh and H. O. Schild: Br. J. Pharmacol. 13, 54, 1958) with some modifications. Male Donryu rats weighing 200±10 g were deprived of food for 24 hr prior to the experiments, with water ad lib. Under the anesthesia with 1.2 g/kg of subcutaneous urethane, trachea and cervical vein were cannulated. With midline opening, the duodenum immediately below the junction with pylorus was incised and after the stomach was flashed with saline for several times, the polyethylene tube was inserted into the pylorus through the incision, and ligated with surrounding tissues keeping the blood vessels intact. The polyvinyl tube was inserted into the mouth up to the forestomach through the esophagus and ligated at the cervical level. Saline solution kept at 35° C. was perfused through the polyvinyl tube at the rate of 1 ml/min, and the perfusate was collected through the polyethylene tube of the pylorus. The perfusate was collected for 30 min and was titrated by 0.01N NaOH with phenolphthalein as an indicator to obtain a total acid output(mEq). Subsequently, the perfusate was collected for every 30 min. After the acid output became constant, the stomach was perfused for further 60 min. After that, in the control group, 0.1 ml of saline per 100 g of body weight was intravenously injected, 10 min later 5 mg/kg of histamine dihydrochloride was injected intravenously. The perfusate for 60 min after histamine injection was collected and determined the acidity. The amount of acid output during 60 min after histamine injection subtracted that for 60 min before histamine was regarded as the acid output response to histamine. In the test groups, following the injection of three compounds (A), (B) and (C) instead of saline, 5 mg/kg of histamine dihydrochloride was injected and acid output was determined. Decreased ratio of the acid output to the control was calculated as the response to the test compound. […]

The target in the next data set is T1, histamine H2 receptor (Cavia porcellus, UniProt P47747).
T1 construct: spontaneously beating atria of guinea pig in vitro; from tissue; host or cells: spontaneously beating guinea pig atria
Nature of the data set: Blocking action on histamine H2 receptor in vitro (positive chronotropic effect of histamine in spontaneously beating atria). The settings on record: negative logarithm of concentration required to shift dose-response of histamine to the right by 2-fold; guinea pig atria; read-out: pA2 (converted). Here is the method:
Histamine H2 receptor blocking activity of the compound was determined by obtaining the dose-response relationship of the positive chronotropic effect of histamine in spontaneously beating atria of guinea pig in vitro, in the absence and in the presence of a test compound. […] E. J. Ariens. Molecular Pharmacology, vol. 1, 153-156 (1964), Academic Press, New York).

T1 sequence (P47747 whole entry): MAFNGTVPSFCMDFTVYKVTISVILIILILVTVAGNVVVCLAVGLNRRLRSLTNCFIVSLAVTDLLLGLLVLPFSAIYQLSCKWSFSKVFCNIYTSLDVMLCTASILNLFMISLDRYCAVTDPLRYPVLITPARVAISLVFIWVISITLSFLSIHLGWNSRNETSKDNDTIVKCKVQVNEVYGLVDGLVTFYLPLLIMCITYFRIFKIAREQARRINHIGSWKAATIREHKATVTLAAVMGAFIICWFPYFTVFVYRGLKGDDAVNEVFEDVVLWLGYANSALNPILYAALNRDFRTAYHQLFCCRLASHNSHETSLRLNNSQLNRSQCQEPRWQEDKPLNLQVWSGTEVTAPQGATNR

For orientation: LD50 means the dose at which mortality reaches 50%. Read a low LD50 as a more toxic substance. Usually ED50 stands for the midpoint of the dose-response relation. With `O=C(NCCCOc1cccc(CN2CCCC2)c1)c1cccnc1` [A], the 50% lethal dose (LD50) in the data set “Acute toxicity” was greater than 1000 mg/kg. Further, in data set [1], the ED50 turned out to be 1.25 mg/kg. `O=C(NCCCOc1cccc(CN2CCCC2)c1)c1cccnc1` [Example 1]: the Kb at histamine H2 receptor was 129 nM.

`O=C(NCCCOc1cccc(CN2CCCC2)c1)c1ccccc1` [Example 2]: the Kb on histamine H2 receptor was 191 nM.

On to `O=C(NCCCOc1cccc(CN2CCCC2)c1)c1cccs1` [Example 3], for which, at histamine H2 receptor, the Kb was 138 nM. Consider `CC(=O)NCCCOc1cccc(CN2CCCC2)c1` [Example 4], for which the Kb at histamine H2 receptor was 195 nM. Turning to `COC(=O)c1ccc(C(=O)NCCCOc2cccc(CN3CCCC3)c2)cc1` [Example 5], the Kb at histamine H2 receptor was 81.3 nM. As for `O=CNCCCOc1cccc(CN2CCCC2)c1` [Example 6], the Kb at histamine H2 receptor was 170 nM. On the same count and under the same terms, the same measure for `O=C(NCCCOc1cccc(CN2CCCC2)c1)c1ccc([N+](=O)[O-])cc1` [Example 7]: 100 nM; for `O=C(NCCCOc1cccc(CN2CCCC2)c1)c1cc(-c2ccccc2)on1` [Example 8]: 186 nM. As to `CC(=O)NCCCOc1cccc(CN2CCCC2)c1` [compound 4, 3-(3-acetamidopropoxy)-1-(1-pyrrolidinylmethyl)benzene], the LD50 in the data set “Acute toxicity” was greater than 1000 mg/kg. In data set [1], the median effective dose (ED50) came out at 1.65 mg/kg.

In the case of `O=CNCCCOc1cccc(CN2CCCC2)c1` [compound 6], in “Acute toxicity”, the LD50 is greater than 1000 mg/kg. The ED50 in data set [1] was 0.84 mg/kg.
